Consider 1 compound from patent US20240190872A1, “FABI INHIBITORS FOR GRAM-NEGATIVE PATHOGENS” (THE BOARD OF TRUSTEES OF THE UNIVERSITY OF ILLINOIS, priority 2021, published 2024).

Converted amounts (≈) assume the structure as drawn.

One data set relates to H. sapiens HFF-1. Briefly: In-vitro cytotoxicity. In kind it is cell-based.
Data set [1] concerns 100 A. baumannii clinical isolates. Put plainly: MIC90 against 100 A. baumannii clinical isolates. In kind it is cell-based. The conditions noted are these: Acinetobacter baumannii. Here is the method: Antimicrobial susceptibility tests. Susceptibility testing was performed in biological triplicate, using the micro-dilution broth method as outlined by the Clinical and Laboratory Standards Institute. Bacteria were cultured with cation-adjusted Muller-Hinton broth (Sigma-Aldrich, Cat# 90922) in round-bottom 96-well plates (Corning, Cat# 3788). Human serum (pooled gender, 0.2 μm filtered) was purchased from BioIVT (Hicksville, NY).

The subject of the next data set is S. aureus ATCC 29213. Briefly: Antimicrobial susceptibility test (MIC), micro-dilution broth. In kind it is cell-based. The following applies: Staphylococcus aureus, ATCC29213; S. aureus ATCC 29213; read-out: MIC S. aureus 29213. Summed up: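 CLSI micro-dilution broth method in cation-adjusted Mueller-Hinton broth, in biological triplicate; human serum (pooled, filtered) was also used.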

The next data set has as its target CYP 2C9 (Homo sapiens (Human), UniProt P11712). Briefly: biochemical.
Data set [2] in a line: Plasma stability.
Data set [3] concerns carbapenem resistant E. coli. Briefly: MIC against infecting strain of the UTI model. In kind it is cell-based. The following applies: Escherichia coli; extensively resistant carbapenem resistant E. coli of UTI model. Here is the method: UTIs represent one of the biggest risks for healthy individuals in terms of exposure to antibiotic-resistant bacteria and many individuals contract one in their lifetime (roughly 1 in 2 women and 1 in 10 men); as such, these infections from Gram-negative pathogens, particularly those that are drug-resistant, remain a major clinical challenge. As E. coli is the causative agent in the great majority of UTIs fabimycin was evaluated in a murine UTI model with a challenging, extensively resistant strain of carbapenem resistant E. coli (fabimycin MIC=2 μg/mL). When dosed at 33.3 mg/kg, TID fabimycin was able to achieve 3.0, 2.8, 2.9, and 1.9 log10 reductions in bacterial load relative to the vehicle in the spleen, bladder, liver, and kidneys tissues, respectively (FIG. 4).

The next data set is described as follows: in vitro. The following applies: mouse, plasma, Plasma stability, t1/2, Mouse.
In a further data set the target is CYP 1A2 (Homo sapiens (Human), UniProt P05177). Put plainly: CYP inhibition.
CYP 1A2, sequence (P05177 whole entry): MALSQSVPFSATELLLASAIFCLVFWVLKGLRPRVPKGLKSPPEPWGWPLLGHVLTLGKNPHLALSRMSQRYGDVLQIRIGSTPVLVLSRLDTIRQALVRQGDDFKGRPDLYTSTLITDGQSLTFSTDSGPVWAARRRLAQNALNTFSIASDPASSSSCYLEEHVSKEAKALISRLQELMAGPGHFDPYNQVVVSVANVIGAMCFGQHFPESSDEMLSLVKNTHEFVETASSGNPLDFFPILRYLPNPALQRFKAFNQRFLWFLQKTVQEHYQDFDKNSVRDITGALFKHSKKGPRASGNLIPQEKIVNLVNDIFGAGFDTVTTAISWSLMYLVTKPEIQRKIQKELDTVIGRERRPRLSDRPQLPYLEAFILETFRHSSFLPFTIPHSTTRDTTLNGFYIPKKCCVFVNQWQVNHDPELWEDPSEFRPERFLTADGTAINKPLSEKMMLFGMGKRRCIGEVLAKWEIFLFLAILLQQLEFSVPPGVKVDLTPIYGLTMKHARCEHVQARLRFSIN
For another data set, the target named is CYP 3A4 (Homo sapiens (Human), UniProt P08684). Briefly: biochemical.
CYP 3A4, sequence (P08684 whole entry): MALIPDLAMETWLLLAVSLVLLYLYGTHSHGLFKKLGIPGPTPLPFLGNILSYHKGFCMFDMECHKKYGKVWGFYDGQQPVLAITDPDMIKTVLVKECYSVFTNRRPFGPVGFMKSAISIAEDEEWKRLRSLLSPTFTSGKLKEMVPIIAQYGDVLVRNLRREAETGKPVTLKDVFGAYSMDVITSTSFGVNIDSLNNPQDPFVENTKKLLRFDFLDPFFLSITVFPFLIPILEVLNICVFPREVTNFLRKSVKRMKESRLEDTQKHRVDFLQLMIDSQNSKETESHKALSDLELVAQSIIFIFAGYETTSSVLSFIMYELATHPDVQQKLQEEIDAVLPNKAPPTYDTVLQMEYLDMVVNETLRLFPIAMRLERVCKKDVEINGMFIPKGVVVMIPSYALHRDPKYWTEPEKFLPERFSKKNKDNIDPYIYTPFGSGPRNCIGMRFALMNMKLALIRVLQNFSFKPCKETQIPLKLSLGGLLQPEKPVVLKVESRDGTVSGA
For data set [4] the following is noted: female, BALB/c, mouse, in vivo, 100 mg/kg.
Another data set relates to A. baumannii AR-88. Put plainly: Neutropenic mouse thigh infection. In kind it is in vivo, female BALB/c mice. As to the method: FIG. 7. […] A) Neutropenic mouse thigh infection model initiated in female BALB/c mice with A. baumannii AR-88 (1.36×10^5 CFU per mouse intramuscular, left thigh) were treated with vehicle (5 mice) or fabimycin (10 mice) four times a day (75 mg/kg intravenously) and bacterial burden evaluated at 26 h post-infection. B) Neutropenic mouse thigh infection initiated in CD-1 mice with S. aureus USA300 LAC (2.3×10^6 CFU per mouse intramuscular in thigh) were treated with vehicle (8 mice) or FabI inhibitor (8 mice per group) 2 and 7 h post-infection (5 mg/kg retro-orbital IV), and the bacterial burden was evaluated 24 h post-infection.
With formulation, MTD, and pharmacokinetic data in hand, the efficacy of fabimycin was evaluated in murine infection models. To start, a comparative assessment was made of fabimycin and Debio-1452-NH3 in two murine neutropenic infection models using a dosing regimen that is at the MTD for Debio-1452-NH3 but below the MTD for fabimycin (three doses, intramuscular, at 50 mg/kg).
Chart 1. Summary of Fabimycin in vivo models.

The target in the next data set is HERG (Homo sapiens (Human), UniProt Q12809). Put plainly: cell-based.
HERG, sequence (Q12809 whole entry): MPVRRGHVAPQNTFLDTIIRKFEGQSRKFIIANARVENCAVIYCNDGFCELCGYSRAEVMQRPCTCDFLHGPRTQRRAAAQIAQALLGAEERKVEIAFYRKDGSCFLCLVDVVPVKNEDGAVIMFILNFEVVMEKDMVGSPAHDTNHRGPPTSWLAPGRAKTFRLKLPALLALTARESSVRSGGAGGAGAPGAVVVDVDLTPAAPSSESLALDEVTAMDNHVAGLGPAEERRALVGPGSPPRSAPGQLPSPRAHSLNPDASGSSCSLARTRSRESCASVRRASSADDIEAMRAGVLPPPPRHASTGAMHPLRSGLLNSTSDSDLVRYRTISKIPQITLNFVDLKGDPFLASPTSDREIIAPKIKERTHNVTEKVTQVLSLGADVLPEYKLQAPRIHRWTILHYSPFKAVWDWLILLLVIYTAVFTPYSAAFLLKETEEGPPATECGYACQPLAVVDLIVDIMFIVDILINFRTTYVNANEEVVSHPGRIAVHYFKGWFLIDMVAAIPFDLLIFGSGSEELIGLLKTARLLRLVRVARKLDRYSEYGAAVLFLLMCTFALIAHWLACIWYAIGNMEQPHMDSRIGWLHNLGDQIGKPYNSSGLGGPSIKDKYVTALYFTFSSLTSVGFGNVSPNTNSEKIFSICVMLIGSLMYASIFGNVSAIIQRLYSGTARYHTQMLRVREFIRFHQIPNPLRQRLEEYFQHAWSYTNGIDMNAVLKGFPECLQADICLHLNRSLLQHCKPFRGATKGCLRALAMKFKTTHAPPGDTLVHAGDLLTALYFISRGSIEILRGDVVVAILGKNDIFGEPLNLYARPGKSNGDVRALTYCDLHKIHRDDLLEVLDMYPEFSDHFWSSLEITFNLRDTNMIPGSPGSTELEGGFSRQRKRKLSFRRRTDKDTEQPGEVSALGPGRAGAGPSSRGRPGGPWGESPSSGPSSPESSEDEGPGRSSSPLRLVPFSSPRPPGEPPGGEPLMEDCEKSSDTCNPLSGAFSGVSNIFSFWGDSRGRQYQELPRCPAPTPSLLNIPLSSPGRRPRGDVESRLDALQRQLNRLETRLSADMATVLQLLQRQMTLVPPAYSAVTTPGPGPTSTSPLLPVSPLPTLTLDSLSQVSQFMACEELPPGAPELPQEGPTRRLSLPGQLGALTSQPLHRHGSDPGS
The next data set concerns the target CYP 2D6 (Homo sapiens (Human), UniProt P10635). Put plainly: biochemical.
Another data set is described as follows: in vivo. The conditions noted are these: female, C57BL/6, mouse, in vivo. Here is the method:
Mouse MTD of Debio-1452-NH3. The protocol was approved by the IACUC at the University of Illinois at Urbana-Champaign (Protocol Number:16144). In these studies, 10- to 12-week-old female C57BL/6 mice purchased from Charles River were used. The maximum tolerate dose (MTD) of single compound was determined first. Debio-1452 amine analogues were formulated in 20% sulfobutyl ether β-cyclodextrin in sterile water. Debio-1452-NH3 (1), and compounds 2 and 3 were given by IP injection and mice were monitored for signs of toxicity for 2 weeks (single dose). For multiple dose, the compound was given by daily IP for 5 consecutive days and mice were monitored for signs of toxicity for 1 month. MTD was the highest dosage with acceptable toxicity (e.g. <20% weight loss). Single dose MTDs were initially determined. […] The MTD of Debio-1452-NH3 (1) was used to inform the dosing schedule used in subsequent efficacy studies.

Data set [5] in a line: Plasma stability. The class given is in vitro ADME.

CYP 2D6, sequence (P10635 whole entry): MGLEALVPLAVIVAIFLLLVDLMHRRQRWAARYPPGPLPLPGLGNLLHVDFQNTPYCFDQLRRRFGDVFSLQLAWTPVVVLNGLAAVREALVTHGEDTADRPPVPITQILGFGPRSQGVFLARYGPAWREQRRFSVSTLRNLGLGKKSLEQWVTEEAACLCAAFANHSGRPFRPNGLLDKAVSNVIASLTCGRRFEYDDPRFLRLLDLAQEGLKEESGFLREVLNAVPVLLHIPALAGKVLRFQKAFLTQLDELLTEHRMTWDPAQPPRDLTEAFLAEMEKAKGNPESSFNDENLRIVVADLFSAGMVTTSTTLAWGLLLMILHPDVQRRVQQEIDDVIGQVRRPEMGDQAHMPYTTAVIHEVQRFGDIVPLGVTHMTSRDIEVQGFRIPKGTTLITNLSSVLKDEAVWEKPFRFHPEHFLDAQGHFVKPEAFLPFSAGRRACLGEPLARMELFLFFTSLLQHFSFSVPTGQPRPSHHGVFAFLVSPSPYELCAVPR
CYP 2C9, sequence (P11712 whole entry): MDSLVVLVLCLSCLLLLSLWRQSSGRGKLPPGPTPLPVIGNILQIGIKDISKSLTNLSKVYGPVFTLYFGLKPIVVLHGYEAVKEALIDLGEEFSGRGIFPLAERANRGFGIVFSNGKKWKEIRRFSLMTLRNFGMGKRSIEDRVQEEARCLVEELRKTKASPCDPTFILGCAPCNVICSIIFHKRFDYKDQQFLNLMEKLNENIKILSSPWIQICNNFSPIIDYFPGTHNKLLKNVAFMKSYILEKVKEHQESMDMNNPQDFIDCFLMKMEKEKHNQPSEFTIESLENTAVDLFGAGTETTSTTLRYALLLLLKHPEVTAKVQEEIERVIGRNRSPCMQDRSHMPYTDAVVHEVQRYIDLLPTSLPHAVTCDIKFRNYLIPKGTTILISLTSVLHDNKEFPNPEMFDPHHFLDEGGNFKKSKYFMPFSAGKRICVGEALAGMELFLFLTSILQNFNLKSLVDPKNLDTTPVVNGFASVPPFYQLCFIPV

As for `Cc1c(CN(C)C(=O)/C=C/c2cnc3c(c2)CC[C@H](N)C(=O)N3)oc2ccccc12` [(S)-11, (S,E)-3-(7-amino-8-oxo-6,7,8,9-tetrahydro-5H-pyrido[2,3-b]azepin-3-yl)-N-methyl-N-((3-methylbenzofuran-2-yl)methyl)acrylamide], the “Plasma stability, t1/2, Mouse” value stood at 1.38 h. In the data set with H. sapiens HFF-1, this compound returned an inhibition at 30 µM of 9.5 ± 3.4%. For the same compound, the IC50 in the data set on H. sapiens HFF-1 (cytotoxicity) is 112 ± 11 µM. Besides, the MIC90 in data set [1] turned out to be 8 µg/mL (≈ 19.8 µM). For the same compound, in the data set on S. aureus ATCC 29213, the MIC was determined as 0.004 µg/mL (≈ 0.00989 µM). This compound returned an IC50 against CYP 2C9 of 27 µM. Moreover, the “stability in mouse plasma (in words)” value in the data set “Plasma stability [2]” is “considerable instability”. This compound also yielded an MIC in [3] of 2 µg/mL (≈ 4.94 µM). Besides, the half-life in “in vitro” was 1.38 h. This compound also had a 50% inhibitory concentration (IC50) on CYP 1A2 of 31 µM. The compound further gave an IC50 on CYP 3A4 of 7 µM. Further, the “time concentrations stayed above the MIC for the infectious strain” value in data set [4] is given as “over 7 hours”. In the data set on A. baumannii AR-88 (75 mg/kg IV, QID, 26 h), the “log reduction relative to the vehicle” value is 1.75 log. In addition, the “reduction of bacterial burden” value with A. baumannii AR-88 (NDM-1 containing A. baumannii, neutropenic thigh) was ~2 log(CFU/thigh). Also, the “Plasma protein binding, Human” value in “Plasma protein binding” (Human) came out at 94%. This compound also gave a fraction unbound in the data set “Plasma protein binding” (human, plasma) of 0.06. In addition, inhibition against HERG was half-maximal at 21.8 µM (IC50). Further, on CYP 2D6, the IC50 is 65 µM. Moreover, in the data set “in vivo”, the MTD at 5 d came to 200 mg/kg. Further, the “stability in rat plasma (in words)” value in “Plasma stability [5]” is given as “excellent stability”.
